Here are results for two molecules from article PMC5597302 (Angewandte Chemie (International ed. in English), 2016).

In data set [1] the test system is B16 melanoma cells expressing human uPAR. In words: B16-uPAR mouse allograft model. As to conditions: Dox 1 mpk.
A further data set has as its target uPAR (Homo sapiens, UniProt Q03405). The settings on record: read-out: affinity for uPAR; reported value; ref 8a; cited from earlier work.

Chain of uPAR (Q03405 23-335): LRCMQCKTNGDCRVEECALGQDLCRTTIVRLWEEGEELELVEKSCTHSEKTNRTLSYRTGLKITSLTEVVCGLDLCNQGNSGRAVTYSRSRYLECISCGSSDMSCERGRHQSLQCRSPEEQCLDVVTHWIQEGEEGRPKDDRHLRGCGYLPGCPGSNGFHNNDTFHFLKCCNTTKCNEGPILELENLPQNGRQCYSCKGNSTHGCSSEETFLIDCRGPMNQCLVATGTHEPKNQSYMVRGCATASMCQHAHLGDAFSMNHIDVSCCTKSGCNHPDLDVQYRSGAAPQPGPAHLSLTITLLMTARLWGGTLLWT

In the case of `COc1cccc2c1C(=O)c1c(O)c3c(c(O)c1C2=O)C[C@@](O)(C(=O)CO)C[C@@H]3O[C@H]1C[C@H](N)[C@H](O)[C@H](C)O1` [Dox, doxorubicin], the “level of TGI relative to ARM-U2” value in data set [1] (daily IP, combination ARM-U2 20 mpk and Dox 1 mpk) is given as “comparable”. Further, the body weight loss entry in data set [1] (throughout the experiments, ARM-U2 20 or 100 mpk) is “significant levels of weight loss”.

On to `O=C(O)c1cccc(Nc2cc(N3CCCCCC3)c3noc4c3c2C(=O)c2ccccc2-4)c1` [IPR-803], for which, on uPAR, the Kd is 200 nM.
